According to patent US6448405B1, “Steroid receptor modulator compounds and methods” (Ligand Pharmaceuticals Incorporated, priority 1994, dated 2002):
Where two headings read alike, the source gives them in different places.

Columns and labels:
[1] = biological target: T1, human androgen receptor (AR) (Homo sapiens, UniProt P10275); assay: Co-transfection assay, AR agonist and antagonist activity, CV-1 cells (pRShAR); format: cell-based; conditions: for AR Agonist CV-1 Cells Efficacy (%): agonist mode, relative to DHT; for AR Antagonist CV-1 Cells Efficacy (%): % maximal inhibition
T1 construct: expressed in transfected cells; host or cells: CV-1 cells, transient transfection
T1 sequence (P10275 1-920): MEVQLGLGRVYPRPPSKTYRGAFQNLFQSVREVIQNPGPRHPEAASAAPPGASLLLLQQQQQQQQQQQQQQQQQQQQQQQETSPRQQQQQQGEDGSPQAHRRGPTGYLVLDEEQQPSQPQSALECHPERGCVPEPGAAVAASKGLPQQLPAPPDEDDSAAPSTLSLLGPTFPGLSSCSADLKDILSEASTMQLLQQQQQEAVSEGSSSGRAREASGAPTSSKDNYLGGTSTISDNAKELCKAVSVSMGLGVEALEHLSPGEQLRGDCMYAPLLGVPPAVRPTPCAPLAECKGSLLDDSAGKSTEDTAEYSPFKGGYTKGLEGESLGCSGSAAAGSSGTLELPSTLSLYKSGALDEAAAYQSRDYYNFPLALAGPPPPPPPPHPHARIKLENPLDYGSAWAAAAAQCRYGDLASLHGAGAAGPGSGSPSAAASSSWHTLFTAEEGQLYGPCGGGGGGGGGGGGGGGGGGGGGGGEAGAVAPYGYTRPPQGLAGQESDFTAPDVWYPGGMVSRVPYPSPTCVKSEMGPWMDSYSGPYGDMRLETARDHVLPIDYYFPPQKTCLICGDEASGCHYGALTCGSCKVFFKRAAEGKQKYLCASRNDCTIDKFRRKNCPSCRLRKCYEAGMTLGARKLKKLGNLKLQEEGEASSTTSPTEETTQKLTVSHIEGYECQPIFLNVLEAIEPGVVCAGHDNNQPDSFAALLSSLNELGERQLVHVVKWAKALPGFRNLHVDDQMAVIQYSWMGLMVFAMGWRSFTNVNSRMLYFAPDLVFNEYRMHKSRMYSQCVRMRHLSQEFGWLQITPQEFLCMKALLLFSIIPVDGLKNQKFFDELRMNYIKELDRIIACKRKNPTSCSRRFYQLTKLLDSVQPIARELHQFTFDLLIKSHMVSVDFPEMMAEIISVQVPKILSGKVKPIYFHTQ

human PR-B = biological target: T2, human PR-B (Homo sapiens, UniProt P06401); assay: Co-transfection assay, PR agonist and antagonist activity, CV-1 cells; format: cell-based; conditions: for EC50: read-out: PR Agonist CV-1 Cells Potency; for IC50: read-out: PR Antagonist CV-1 Cells Potency;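 for all read-outs here: luciferase reporter driven by a hormone response element, co-transfected with human PR-B into CV-1 monkey kidney cells, agonists raise and antagonists lower the reporter signal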
T2 construct: expressed in transfected cells; host or cells: CV-1 cells (African green monkey kidney fibroblasts), transient transfection
T2 sequence (P06401 1-933): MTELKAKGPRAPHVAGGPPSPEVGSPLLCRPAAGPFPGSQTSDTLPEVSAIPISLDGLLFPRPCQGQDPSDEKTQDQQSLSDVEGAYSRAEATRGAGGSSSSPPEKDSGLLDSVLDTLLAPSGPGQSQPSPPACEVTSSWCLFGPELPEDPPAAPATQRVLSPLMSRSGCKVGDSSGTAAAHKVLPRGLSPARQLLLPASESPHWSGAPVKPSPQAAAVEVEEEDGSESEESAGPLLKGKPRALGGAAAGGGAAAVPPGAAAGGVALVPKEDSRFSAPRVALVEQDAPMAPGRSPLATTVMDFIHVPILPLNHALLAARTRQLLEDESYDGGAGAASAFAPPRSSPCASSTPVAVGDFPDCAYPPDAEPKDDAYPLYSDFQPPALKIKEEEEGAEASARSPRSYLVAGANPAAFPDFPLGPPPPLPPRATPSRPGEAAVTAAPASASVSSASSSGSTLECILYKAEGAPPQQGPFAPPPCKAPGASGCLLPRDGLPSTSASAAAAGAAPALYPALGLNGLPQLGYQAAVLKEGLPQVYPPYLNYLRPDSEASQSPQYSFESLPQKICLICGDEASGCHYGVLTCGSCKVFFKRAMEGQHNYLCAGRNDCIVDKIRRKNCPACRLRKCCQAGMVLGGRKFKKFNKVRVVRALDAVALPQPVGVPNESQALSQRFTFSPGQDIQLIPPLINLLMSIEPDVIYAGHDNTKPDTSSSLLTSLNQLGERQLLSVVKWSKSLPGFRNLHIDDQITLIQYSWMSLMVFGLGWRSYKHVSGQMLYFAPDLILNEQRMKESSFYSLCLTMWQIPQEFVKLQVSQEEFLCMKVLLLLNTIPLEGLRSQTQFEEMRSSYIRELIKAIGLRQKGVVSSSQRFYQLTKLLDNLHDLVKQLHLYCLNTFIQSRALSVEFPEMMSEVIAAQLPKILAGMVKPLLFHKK

[2] = biological target: T3, human progesterone receptor A form (PR-A) (Homo sapiens, UniProt P06401); assay: PR binding assay, baculovirus extract, [3H] progesterone; conditions: read-out: PR Binding Ki
T3 sequence (P06401 1-769 isoform P06401-2): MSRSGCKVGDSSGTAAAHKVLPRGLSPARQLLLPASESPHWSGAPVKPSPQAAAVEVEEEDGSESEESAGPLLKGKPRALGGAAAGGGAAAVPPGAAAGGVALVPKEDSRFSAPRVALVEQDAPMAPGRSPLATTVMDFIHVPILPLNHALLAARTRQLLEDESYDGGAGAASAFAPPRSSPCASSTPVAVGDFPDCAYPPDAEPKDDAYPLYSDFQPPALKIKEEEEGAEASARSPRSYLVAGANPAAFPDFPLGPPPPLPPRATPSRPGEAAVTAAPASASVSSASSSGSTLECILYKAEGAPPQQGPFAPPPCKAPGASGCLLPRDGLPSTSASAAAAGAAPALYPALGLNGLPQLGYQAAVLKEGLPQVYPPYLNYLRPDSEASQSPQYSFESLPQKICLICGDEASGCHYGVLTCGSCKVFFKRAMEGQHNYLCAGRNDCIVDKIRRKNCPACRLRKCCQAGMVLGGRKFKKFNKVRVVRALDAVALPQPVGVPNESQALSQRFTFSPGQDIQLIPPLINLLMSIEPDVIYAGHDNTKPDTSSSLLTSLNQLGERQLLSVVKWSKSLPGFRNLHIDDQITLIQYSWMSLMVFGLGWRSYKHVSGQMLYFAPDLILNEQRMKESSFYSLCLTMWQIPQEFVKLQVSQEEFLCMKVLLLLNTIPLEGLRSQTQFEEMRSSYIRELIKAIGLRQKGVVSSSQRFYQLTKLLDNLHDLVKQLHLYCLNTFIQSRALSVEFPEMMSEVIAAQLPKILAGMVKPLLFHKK

[3] = agonist mode, percent maximal response relative to reference agonist progesterone
[4] = antagonist mode, progesterone at its EC50, % maximal inhibition

Compound | AR Agonist CV-1 Cells Efficacy (%) ([1]; Table 2) | AR Antagonist CV-1 Cells Efficacy (%) ([1]; Table 2, antagonist mode) | PR Agonist CV-1 Cells Efficacy (%) (human PR-B) | PR Antagonist CV-1 Cells Efficacy (%) (human PR-B) | Ki [2] [nM] | EC50 (human PR-B; agonist mode) [nM] | IC50 (human PR-B) [nM] | further results
8-(4-Chlorobenzoyl)-5-trifluoromethyl-7-pyridono[5,6-e]indoline [Compound 420] | 40% | 80 | – | – | – | – | – | –
8-Bromo-12-dihydro-2,2,4-trimethylindeno[1,2-]quinoline [Compound 117] | – | – | – | – | – | – | – | PR Agonist CV-1 Cells Efficacy (%) (human PR-B; [3]): na (na = not active (i.e. efficacy or <20 and potency of >10,000)); PR Antagonist CV-1 Cells Efficacy (%) (human PR-B; [4]): 68%
CC1=CC(C)(C)Nc2ccc3c(c21)C(C)Oc1ccc(Cl)cc1-3 (racemic) [Compound 332, (R/S)-9-Chloro-1,2-dihydro-2,2,4,5-tetramethyl-5H-chromeno[3,4-f]quinoline] | – | – | 138% | na (na = not active (i.e. efficacy or <20 and potency of >10,000)) | – | – | – | –
CC1(C)Nc2ccc3c(c2C(=O)C1(C)C)C(c1ccc(Cl)cc1)Oc1ccccc1-3 (racemic) [Compound 379, (R/S)-5-(4-Chlorophenyl)-1,2,3,4-tetrahydro-2,2,3,3-tetramethyl-5H-chromeno[3,4-f]-4-quinolinone] | – | – | na (na = not active (i.e. efficacy or <20 and potency of >10,000)) | 87% | 25 | > 10000 | 350 | –
CCCCC1Oc2ccccc2-c2ccc3c(c21)C(C)C(O)(CCCC)C(C)(C)N3 (racemic) [Compound 385, (R/S)-3,5-Dibutyl-1,2,3,4-tetrahydro-3-hydroxy-2,2,4-trimethyl-5H-chromeno[3,4-f]quinoline] | – | – | 27% | 45% | 31 | 82 | 2300 | –
CC1C(=O)C(C)(C)Nc2ccc3c(c21)/C(=C/c1cccc(F)c1)Oc1ccccc1-3 (racemic) [Compound 389, (Z)-(R/S)-5-(3-Fluorobenzylidene)-1,2,3,4-tetrahydro-2,2,4-trimethyl-5H-chromeno[3,4-f]-3-quinolinone] | – | – | 133% | na (na = not active (i.e. efficacy or <20 and potency of >10,000)) | 4 | 17 | > 10000 | –
CCCO[C@@H]1[C@@H](C)c2c(ccc3c2[C@H](c2ccc(Cl)cc2)Oc2ccccc2-3)NC1(C)C (racemic) [Compound 400, (R/S-3l,4u,5u)-5-(4-Chlorophenyl)-1,2,3,4-tetrahydro-3-propyloxy-2,2,4-trimethyl-5H-chromeno[3,4-f]quinoline] | – | – | na (na = not active (i.e. efficacy or <20 and potency of >10,000)) | 68% | 14 | > 10000 | 370 | –
C[C@H]1C(=O)C(C)(C)Nc2ccc3c(c21)O[C@H](c1ccccc1)c1ccccc1-3 (relative stereo) [Compound 391, (R/S-4l,6l)-1,2,3,4-Tetrahydro-2,2,4-trimethyl-6-phenyl-5H-isochromeno[3,4-f]-3-quinolinone] | – | – | – | – | – | – | – | PR Agonist CV-1 Cells Efficacy (%) (human PR-B; [3]): na (na = not active (i.e. efficacy or <20 and potency of >10,000)); PR Antagonist CV-1 Cells Efficacy (%) (human PR-B; [4]): 65%
CC1C(=O)C(C)(C)Nc2ccc3c(c21)C(c1ccc(Cl)cc1)Oc1ccccc1-3 (single isomer, unassigned; (+)) [Compound 381, (+)-(R*-4l,5l)-5-(4-Chlorophenyl)-1,2,3,4-tetrahydro-2,2,4-trimethyl-5H-chromeno[3,4-f]-3-quinolinone] | – | – | – | na (na = not active (i.e. efficacy or <20 and potency of >10,000)) | – | – | – | –
CC1=CC(C)(C)Nc2ccc(-n3cnc(Cl)c3Cl)cc21 [Compound 103, 6-(4,5-Dichloroimidazol-1-yl)-1,2-dihydro-2,2,4-trimethylquinoline] | – | – | na (na = not active (i.e. efficacy or <20 and potency of >10,000)) | 91% | 372 | > 10000 | 780 | –
CC1=CC(C)(C)Nc2cc3[nH]c(=O)cc(C(F)(F)F)c3cc21 [Compound 247, 1,2-Dihydro-2,2,4-trimethyl-6-trifluoromethyl-8-pyridono[5,6-g]quinoline] | 23% | 69 | – | – | – | – | – | –
CC1=CC(C)(C)Nc2ccc(-c3cc(F)cc(C#N)c3)cc21 [Compound 271, 6-(3-Cyano-5-fluorophenyl)-1,2-dihydro-2,2,4-trimethylquinoline] | – | – | na (na = not active (i.e. efficacy or <20 and potency of >10,000)) | 78% | – | – | – | –
O=c1cc(C(F)(F)F)c2cc3c(cc2[nH]1)NCC3 [Compound 419, 5-Trifluoromethyl-7-pyridono[5,6-e]indoline] | 29% | 74 | – | – | – | – | – | –
CC1(C)CNc2cc3[nH]c(=O)cc(C(F)(F)F)c3cc2C1 [Compound 437, 1,2,3,4-Tetrahydro-3,3-dimethyl-6-trifluoromethyl-8-pyridono[5,6-g]quinoline] | na (na = not active (i.e. efficacy of <20 and potency of >10,000)) | 72 | – | – | – | – | – | AR Agonist CV-1 Cells Efficacy (%) [1]: na (na = not active (i.e. efficacy of <20 and potency of >10,000)); activity as AR antagonists compared with 2-OH-flutamide ([1]; antagonist mode): equivual or better activity
(R/S)-4-Ethyl-1,2,3,4-tetrahydro-1-methyl-8-pyranono[5,6-g]quinoline [Compound 416] | 88% | 24 | – | – | – | – | – | AR Agonist CV-1 Cells Efficacy (%) [1]: 88%; AR Antagonist CV-1 Cells Efficacy (%) ([1]; antagonist mode, DHT at its EC50): 24%
